Laboratory results from US20240207355A1, “PHARMACEUTICAL COMPOSITION FOR ENHANCING ANTICANCER EFFECT OF ANTICANCER DRUG” (L-BASE CO., LTD., priority 2021, published 2024).
Where two headings read alike, the source gives them in different places. Ends that are not written are not given here. Peptide text beside a SMILES is read from it. * marks the point of attachment. Benzoyl(3-Ph) = O=C(c1cccc(-c2ccccc2)c1)*; Benzoyl(4-OMe) = COc1ccc(C(=O)*)cc1

Legend:
[1] = test system: lung cancer cell line H820; experiment: MTT assay, cell viability inhibition in lung cancer cell line H820; assay type: cell-based
Protocol: First, [sequence] was administered at a concentration of 10 μM to H820, and then, the targeted anticancer drug Osimertinib was administered either alone or in combination at a concentration of 5 μM, and the cell viability inhibitory effect was compared 48 hours later.

[2] = test system: breast cancer cell line HCC1937; experiment: MTT assay, cell viability inhibition in breast cancer cell line HCC1937; assay type: cell-based
Protocol: After 24 hours, the cell viability inhibitory effect was compared.
After 48 hours, the cell viability inhibitory effect was compared.
After 72 hours, the cell viability inhibitory effect was compared.

H1975/OR = experiment: MTT assay, cell viability inhibition in lung cancer cell line H1975/OR; conditions: for cell viability decrease compared to the control group: human, 5 μM
Protocol: (§1) Specifically, cells were seeded at 2×10^3/100 μl per well on a 96-well plate, and after culturing for 24 hours, the compound according to the present invention was administered; 4 hours later, anticancer drugs were treated to each cancer cell. The treatment concentration and treatment time of the compound and anticancer drug are specifically described in the embodiment. After completing the treatment of the compound and anticancer drug, CellTiter-96® reagent (Promega Co., USA) was reacted at 5% CO2, 37° C. after adding 10 μl per well. After 3 hours, absorbance was measured at 490 nm using a spectrophotometer (SPECTROstar^Nano, BMG).
Additionally, H1975/OR was treated with 3-PhPh-[…] at a concentration of 5 μM, and after 4 hours, the chemotherapeutic agent Alimta was administered either alone or in combination at a concentration of 0.1 μM, and after 72 hours, the effects of inhibiting cell viability were compared.
Subsequently, H1975/OR was treated with 3-PhPh-[…] at a concentration of 5 μM, and after 4 hours, the targeted anticancer drug Osimertinib was administered either alone or in combination at a concentration of 2.5 μM, and after 68 hours, the effects of inhibiting cell viability were compared.

[3] = test system: lung cancer cell line H1975; experiment: MTT assay, cell viability inhibition in lung cancer cell line H1975; conditions: for cytotoxicity at 0.5 µM: Osimertinib 0.5 μM alone; for cell viability decrease compared to the control group: human
Protocol: as §1
H1975 was treated with 3-PhPh-[…] at a concentration of 25 μM and after 4 hours, Osimertinib was administered at a concentration of 1.25 μM, either alone or in combination, and the cell viability inhibitory effects were compared 68 hours later.
Subsequently, H1975 was treated with 4-PhPh-[…] at a concentration of 2 μM, and at the same time, Osimertinib was administered at a concentration of 1 μM, either alone or in combination, and the cell viability inhibitory effects were compared 48 hours later.
Next. H1975 was treated with Ac-[…] at a concentration of 10 μM, and at the same time, Osimertinib was administered at a concentration of 0.5 μM, either alone or in combination, and the cell viability inhibitory effects were compared 48 hours later.
Furthermore, H1975 was treated with 4-MeOPh-[…] at a concentration of 10 μM and simultaneously, a targeted anticancer drug, Osimertinib, was administered either alone or in combination at a concentration of 0.5 μM, and after 48 hours, the effects of inhibiting cell viability were compared.
Similarly, the lung cancer cell line H1975 was treated with 4-PhPh-[…] at a concentration of 2 μM according to the MTT assay method described in the “Experimental Materials and Methods”. At the same time, Alimta, a chemotherapeutic agent, was administered either alone or in combination at a concentration of 0.2 μM, and after 48 hours, the effects of inhibiting cell viability were compared.
The anticancer effect of the triple co-administration was compared with the 3-PhPh-[…] single treatment group, and the Osimertinib and Alimta co-treatment group.

H1975 cell line = conditions: H1975 Balb/C nude mice
Protocol: H1975 cells were mixed with matrigel in a 1:1 ratio at a concentration of 5×10^6 cells/mouse, and each was subcutaneously inoculated at 200 μl into the flank of the mouse once. After the inoculation, it was confirmed that the volume of the formed tumor reached 70˜130 mm^3, and then random grouping was carried out. After the grouping, Osimertinib was administered orally every day, and after the growth of the tumor was inhibited, the point of re-growth was identified and the co-administration with the test substance was started. The test substances were administered intravenously 7 times at 2-day intervals.
After inoculating the H1975 cell line in 4-week-old female Balb/C nude mice, the presence and growth of the tumor were observed and the short and long axes of the tumor were measured to calculate the volume. When the volume of the tumor reached 70-120 mm^3, the groups were randomly separated and PBS, the negative control group, and Osimertinib at 5 mpk were orally administered daily.
The first day of administration was set as day 1, and the volume of the tumor was measured twice a week.
Accordingly, the individuals who orally administered 5 mpk Osimertinib every day for 28 days were further divided into two groups and observed until the 32nd day of administration.

[4] = test system: non-small cell lung cancer cell line PC9/OR; experiment: MTT assay, cell viability inhibition in non-small cell lung cancer cell line PC9/OR; assay type: cell-based; conditions: 68 h
[5] = test system: H820 lung cancer cell line; experiment: Heterotransplant lung cancer animal model (H820), tumor growth; assay type: in vivo; conditions: H820 nude mice; 3-PhPh-AQTGTGKT 10 mpk alone, 7 times at a two-day interval for 14 days; FIG. 6A
Protocol: The test substances were administered intravenously and orally 7 times at 2-day intervals.
Nude mice transplanted with H820 lung cancer cell line, an animal model of lung cancer described in the “Experimental Materials and Methods,” was treated 7 times at a two-day interval for 14 days with 3-PhPh-[…] at a dose of 10 mpk, and Osimertinib was orally administered daily at 2.5 mpk. Then, the growth of the tumor was compared.

p-Beclin1S15 = experiment: Immunohistochemical staining of p-Beclin1S15 in H820 tumor tissue; assay type: in vivo; conditions: H820 nude mice tumor; 3-PhPh-AQTGTGKT 10 mpk alone, 7 times at 2-day intervals; IHC; FIG. 7
Protocol: Tissue embedded in paraffin was cut to a thickness of 4 μm and affixed to a slide, then thoroughly dried and the IHC experiment procedure was performed. Each slide was deparaffinized, and endogenous enzymes were removed using citrate buffer (pH 6.0). Then, p-Beclin1S15 antibody was diluted to 1:100 and treated for 15 hours at 4° C. After washing 4 times with TBST wash buffer, rabbit HRP was treated for secondary antibody reaction and reacted at room temperature for 30 minutes. After the substrate for the antibody reaction was added, when the color appeared, the slide was washed and sealed, and after slide scanning, the result was read.
Nude mice transplanted with H820 lung cancer cell line, an animal model of lung cancer described in the “Experimental Materials and Methods,” was treated 7 times at 2-day intervals for 14 days with 3-PhPh-[…] at a dose of 10 mpk. Osimertinib was orally administered daily at 2.5 mpk, followed by tumor sampling and p-Beclin1S15 immunostaining.

## AQTGTGKT [alanine-glutamine-threonine-glycine-threonine-glycine-lysine-threonine]
[1]; H820, AQTGTGKT 10 μM alone, 48 hours, FIG. 2A
  cell viability decrease compared to the control group: about 15%
[2]; HCC1937, AQTGTGKT 5 μM alone, 24 hours, FIG. 4A
  decrease in cell viability compared to the control group: no decrease in cell viability

## Nc1nc2[nH]cc(CCc3ccc(C(=O)N[C@@H](CCC(=O)O)C(=O)O)cc3)c2c(=O)[nH]1 [Alimta, Pemetrexed, reference compound]
H1975/OR; Homo sapiens, NCI-H1975, 72 h, read-out: cell viability decrease compared to the control group
  cytotoxicity at 0.1 µM: ~8.3%
[3]; Homo sapiens, NCI-H1975, 48 h, read-out: cell viability decrease compared to the control group, H1975, Alimta 0.2 μM alone, 48 hours, FIG. 1E
  cytotoxicity at 0.2 µM: ~6%

## C=CC(=O)Nc1cc(Nc2nccc(-c3cn(C)c4ccccc34)n2)c(OC)cc1N(C)CCN(C)C [Osimertinib]
H1975/OR; Homo sapiens, NCI-H1975, 68 h, read-out: cell viability decrease compared to the control group
  cytotoxicity at 2.5 µM: ~7%
H1975 cell line; Osimertinib 5 mpk orally daily, before resistance, P<0.001
  growth of the tumor compared to the PBS group: significantly suppressed
H1975 cell line; all groups
  weight loss or death of animals during the experiment: No weight loss or death
[1]; NCI-H820, 48 h, read-out: cell viability decrease compared to the control group
  cytotoxicity at 5 µM: ~28%
[1]; NCI-H820, 72 h, read-out: cell viability decrease compared to the control group
  cytotoxicity at 6 µM: ~15%
[4]; PC9-OR, read-out: cell viability decrease compared to the control group
  cytotoxicity at 4 µM: ~10%
[3]; Homo sapiens, NCI-H1975, 48 h, read-out: cell viability decrease compared to the control group, H1975, 48 hours, FIG. 1C
  cytotoxicity at 0.5 µM: ~12%
[3]; Homo sapiens, NCI-H1975, 48 h, read-out: cell viability decrease compared to the control group, H1975, 48 hours, FIG. 1D
  cytotoxicity at 0.5 µM: ~21%
[3]; Homo sapiens, NCI-H1975, 48 h, read-out: cell viability decrease compared to the control group, H1975, Osimertinib 1 μM alone, 48 hours, FIG. 1B
  cytotoxicity at 1 µM: ~5%
[3]; Homo sapiens, NCI-H1975, 68 h, read-out: cell viability decrease compared to the control group, H1975, Osimertinib 1.25 μM alone, 68 hours, FIG. 1A
  cytotoxicity at 1.25 µM: ~19%

## O=C(c1cc(Cc2n[nH]c(=O)c3ccccc23)ccc1F)N1CCN(C(=O)C2CC2)CC1 [Olaparib, reference compound]
[2]; Homo sapiens, HCC1937, 24 h, read-out: decrease in cell viability compared to the control group
  cytotoxicity at 2.5 µM: ~1.2%

## COc1ccc(C(=O)N[C@@H](C)C(=O)N[C@@H](CCC(N)=O)C(=O)N[C@H](C(=O)NCC(=O)N[C@H](C(=O)NCC(=O)N[C@@H](CCCCN)C(=O)N[C@H](C(=O)O)[C@@H](C)O)[C@@H](C)O)[C@@H](C)O)cc1 ({Benzoyl(4-OMe)}-AQTGTGKT-OH)
[2]; human, 48 h, 5 μM
  decrease in cell viability compared to the control group: about 4.6%
[3]; 48 h, 10 μM
  cell viability decrease compared to the control group: about 6%

## C[C@H](NC(=O)c1cccc(-c2ccccc2)c1)C(=O)N[C@@H](CCC(N)=O)C(=O)N[C@H](C(=O)NCC(=O)N[C@H](C(=O)NCC(=O)N[C@@H](CCCCN)C(=O)N[C@H](C(=O)O)[C@@H](C)O)[C@@H](C)O)[C@@H](C)O ({Benzoyl(3-Ph)}-AQTGTGKT-OH)
H1975/OR; 68 h
  cell viability decrease compared to the control group: about 17%
H1975/OR; 72 h
  cell viability decrease compared to the control group: about 6.5%
[1]; human, 72 h, 40 μM
  cell viability decrease compared to the control group: about 8%
[4]; human, 25 μM
  cell viability decrease compared to the control group: approximately 0.2%
[5]
  tumor viability reduction compared to the control group (PBS administered group): about 38%
[2]; human, 72 h, 10 μM
  decrease in cell viability compared to the control group: about 3%
[3]; 68 h, 25 μM
  cell viability decrease compared to the control group: about 10%
p-Beclin1S15
  expression of p-Beclin1S15 compared to the group receiving Osimertinib alone: reduced
